According to patent US20140031283A1, “ANTICANCER FUSION PROTEIN” (ADAMED SP. Z O.O., priority 2011, published 2014):
“And” between values parts separate entries of the source, which are not always exact repeats. Equal values may be shown once. Read-outs that look alike come from different tables or passages of the source.

Assays:
Colo 205 = assay: MTT cytotoxicity test, Colo 205 (human colorectal cancer); format: cell-based
Description: (§1) MTT assay is a colorimetric assay used to measure proliferation, viability and cytotoxicity of cells. It consists in decomposition of a yellow tetrazolium salt MTT (4,5-dimethyl-2-thiazolyl)-2,5-diphenyltetrazolium bromide) to the water-insoluble purple dye formazan by mitochondrial enzyme succinate-tetrazolium reductase 1. MTT reduction occurs only in living cells. Data analysis consists in determining IC50 concentration of the protein (in ng/ml), at which the 50% reduction in the number of cells occurs in the population treated compared to control cells. Results were analyzed using GraphPad Prism 5.0 software. The test was performed according to the literature descriptions (Cells, J E, (1998). Cell Biology, a Laboratory Handbook, second edition, Academic Press, San Diego; Yang, Y., Koh, L W, Tsai, J H., (2004); Involvement of viral and chemical factors with oral cancer in Taiwan, Jpn J Clin Oncol, 34 (4), 176-183). Cell culture medium was diluted to a defined density (10^4-10^5 cells per 100 μl). Then 100 μl of appropriately diluted cell suspension was applied to a 96-well plate in triplicates. […] After stirring, the absorbance was measured at 570 nm (reference filter 690 nm). […]

SW620 = assay: MTT cytotoxicity test, SW620 (human colorectal cancer); format: cell-based; conditions: continuous incubation over 72 h, test MTT
Description: as §1

MDA-MB-435s = assay: MTT cytotoxicity test, MDA-MB-435s (human breast cancer); format: cell-based; conditions: continuous incubation over 72 h
Description: as §1

HT-29 = assay: MTT cytotoxicity test, HT-29 (human colorectal cancer); format: cell-based; conditions: continuous incubation over 72 h, test MTT
Description: as §1

NIH: OVCAR-3 = assay: MTT cytotoxicity test, NIH: OVCAR-3 (human ovarian cancer); format: cell-based
Description: as §1

HT144 = assay: MTT cytotoxicity test, HT144 (human melanoma cells); format: cell-based
Description: as §1

SK-OV-3 = assay: MTT cytotoxicity test, SK-OV-3 (human ovarian cancer); format: cell-based; conditions: continuous incubation over 72 h
Description: as §1

CAKI 2 = assay: MTT cytotoxicity test, CAKI 2 (human kidney cancer); format: cell-based; conditions: continuous incubation over 72 h
Description: as §1

CAKI 1 = assay: MTT cytotoxicity test, CAKI 1 (human kidney cancer); format: cell-based; conditions: continuous incubation over 72 h
Description: as §1

SW780 = assay: MTT cytotoxicity test, SW780 (human bladder cancer); format: cell-based
Description: as §1

HepG2 = assay: MTT cytotoxicity test, HepG2 (human liver hepatoma); format: cell-based; conditions: continuous incubation over 72 h, test MTT
Description: as §1

MDA-MB-231 = assay: MTT cytotoxicity test, MDA-MB-231 (human breast cancer); format: cell-based; conditions: continuous incubation over 72 h, test MTT
Description: as §1

ACHN = assay: MTT cytotoxicity test, ACHN (human kidney cancer); format: cell-based; conditions: continuous incubation over 72 h
Description: as §1

MCF-7 = assay: MTT cytotoxicity test, MCF-7 (human breast cancer); format: cell-based; conditions: continuous incubation over 72 h
Description: as §1

A549 = assay: MTT cytotoxicity test, A549 (human lung cancer); format: cell-based
Description: MTT assay is a colorimetric assay used to measure proliferation, viability and cytotoxicity of cells. It consists in decomposition of a yellow tetrazolium salt MTT (4,5-dimethyl-2-thiazolyl)-2,5-diphenyltetrazolium bromide) to the water-insoluble purple dye formazan by mitochondrial enzyme succinate-tetrazolium reductase 1. MTT reduction occurs only in living cells. Data analysis consists in determining IC50 concentration of the protein (in ng/ml), at which the 50% reduction in the number of cells occurs in the population treated compared to control cells. Results were analyzed using GraphPad Prism 5.0 software. The test was performed according to the literature descriptions (Cells, J E, (1998). Cell Biology, a Laboratory Handbook, second edition, Academic Press, San Diego; Yang, Y., Koh, L W, Tsai, J H., (2004); Involvement of viral and chemical factors with oral cancer in Taiwan, Jpn J Clin Oncol, 34 (4), 176-183). Cell culture medium was diluted to a defined density (10^4-10^5 cells per 100 μl). Then 100 μl of appropriately diluted cell suspension was applied to a 96-well plate in triplicates. Thus prepared cells were incubated for 24 h at 37° C. in 5% or 10% CO2, depending on the medium used, and then to the cells (in 100 μl of medium) further 100 μl of the medium containing various concentrations of tested proteins were added. In the case of combination hTRAIL114-281 and p21WAF effector protein, 100 μl of the medium containing mixture of hTRAIL114-281 and p21WAF effector protein in molar ratio 1:1 was added. After incubation of the cells with tested proteins over the period of next 72 hours, which is equivalent to 3-4 times of cell division, the medium with the test protein was added with […] of MTT working solution [5 mg/ml], and incubation was continued for 3 h at 37° C. in 5% CO2. Then the medium with MTT solution was removed, and formazan crystals were dissolved by adding 100 μl of DMSO. After stirring, the absorbance was measured at 570 nm (reference filter 690 nm). […]

DU-145 = assay: MTT cytotoxicity test, DU-145 (human prostate cancer); format: cell-based; conditions: continuous incubation over 72 h
Description: as §1

UM-UC-3 = assay: MTT cytotoxicity test, UM-UC-3 (human bladder cancer); format: cell-based
Description: as §1

BxPC-3 = assay: MTT cytotoxicity test, BxPC-3 (human pancreatic cancer); format: cell-based
Description: as §1

MES-SA/Dx5 = assay: MTT cytotoxicity test, MES-SA/Dx5 (multidrug-resistant human uterine sarcoma); format: cell-based; conditions: Table 4, mean/SD part
Description: as §1

PLC/PRF/5 = assay: MTT cytotoxicity test, PLC/PRF/5 (human liver hepatoma); format: cell-based; conditions: continuous incubation over 72 h, test MTT
Description: as §1

Panc03.27 = assay: MTT cytotoxicity test, Panc03.27 (human pancreatic cancer); format: cell-based; conditions: continuous incubation over 72 h
Description: as §1

SK-MES-1 = assay: MTT cytotoxicity test, SK-MES-1 (human lung cancer); format: cell-based; conditions: Table 4, mean/SD part
Description: as §1

SK-Hep-1 = assay: MTT cytotoxicity test, SK-Hep-1 (human liver hepatoma); format: cell-based; conditions: continuous incubation over 72 h
Description: as §1

HT1080 = assay: MTT cytotoxicity test, HT1080 (human fibrosarcoma); format: cell-based; conditions: continuous incubation over 72 h
Description: as §1

A498 = assay: MTT cytotoxicity test, A498 (human kidney cancer); format: cell-based; conditions: continuous incubation over 72 h
Description: as §1

Panc-1 = assay: MTT cytotoxicity test, Panc-1 (human pancreatic cancer); format: cell-based; conditions: continuous incubation over 72 h, test MTT
Description: as §1

LNCaP = assay: MTT cytotoxicity test, LNCaP (human prostate cancer); format: cell-based; conditions: Table 4, mean/SD part
Description: as §1

Jurkat A3 = assay: EZ4U cytotoxicity test, Jurkat A3 (human leukaemia); format: cell-based; conditions: continuous incubation over 72 h; heading prints test MTT
Protocol: EZ4U (Biomedica) test was used for testing cytotoxic activity of the proteins in nonadherent cell lines. The test is a modification of the MTT method, wherein formazan formed in the reduction of tetrazolium salt is water-soluble. Cell viability study was carried out after continuous 72-hour incubation of the cells with protein (seven concentrations of protein, each in triplicates). On this basis IC5O values were determined (as an average of two independent experiments) using the GraphPad Prism 5 software. Control cells were incubated with the solvent only.
The results of in vitro cytotoxicity tests are summarized as IC50 values (ng/ml), which corresponds to the protein concentration at which the cytotoxic effect of fusion proteins is observed at the level of 50% with respect to control cells treated only with solvent. Each experiment represents the average value of at least two independent experiments performed in triplicates. As a criterion of lack of activity of protein preparations the IC50 limit of 2000 ng/ml was adopted.

[1] = continuous incubation over 72 h, test MTT

Protocol for HCT-116: (§2) Data analysis consists in determining IC50 concentration of the protein (in ng/ml), at which the 50% reduction in the number of cells occurs in the population treated compared to control cells. Results were analyzed using GraphPad Prism 5.0 software. […] Cell culture medium was diluted to a defined density (10^4-10^5 cells per 100 μl). Then 100 μl of appropriately diluted cell suspension was applied to a 96-well plate in triplicates. Thus prepared cells were incubated for 24 h at 37° C. in 5% or 10% CO2, depending on the medium used, and then to the cells (in 100 μl of medium) further 100 μl of the medium containing various concentrations of tested proteins were added. […] After incubation of the cells with tested proteins over the period of next 72 hours, which is equivalent to 3-4 times of cell division, the medium with the test protein was added with 20 ml of MTT working solution [5 mg/ml], and incubation was continued for 3 h at 37° C. in 5% CO2. Then the medium with MTT solution was removed, and formazan crystals were dissolved by adding 100 μl of DMSO. After stirring, the absorbance was measured at 570 nm (reference filter 690 nm).
Protocol for NCI-H460: as §2

Compound: TRAIL 95-281
- COLO205 IC50 (Colo 205; [1]): 0.05902 µg/mL
- SW620 IC50 (SW620): >2 µg/mL
- HCT116 IC50 (HCT-116; [1]): >2 µg/mL
- MDA-MB-435s IC50 (MDA-MB-435s): >2 µg/mL
- HT29 IC50 (HT-29): >2 µg/mL
- OV-CAR-3 IC50 (NIH: OVCAR-3; [1]): 0.963 µg/mL
- HT144 IC50 (HT144; [1]): 0.0341 µg/mL
- SK-OV-3 IC50 (SK-OV-3): >2 µg/mL
- CAKI 2 IC50 (CAKI 2): >2 µg/mL
- CAKI 1 IC50 (CAKI 1): 0.3953 µg/mL
- SW780 IC50 (SW780; [1]): 0.12 µg/mL
- HepG2 IC50 (HepG2): >2 µg/mL
- MDA-MB-231 IC50 (MDA-MB-231): >2 µg/mL
- ACHN IC50 (ACHN): >2 µg/mL
- MCF 7 IC50 (MCF-7): >2 µg/mL
- A549 IC50 (A549; [1]): >2 µg/mL
- DU145 IC50 (DU-145): >2 µg/mL
- UM-UC-3 IC50 (UM-UC-3; [1]): >2 µg/mL
- BxPC3 IC50 (BxPC-3; [1]): 0.06061 µg/mL

Compound: CC[C@H](C)[C@H](NC(=O)[C@H](CC(C)C)NC(=O)[C@H](CCCNC(=N)N)NC(=O)[C@H](CCCNC(=N)N)NC(=O)[C@H](CCCCN)NC(=O)[C@H](CO)NC(=O)[C@H](Cc1c[nH]cn1)NC(=O)[C@H](Cc1ccc(O)cc1)NC(=O)[C@H](Cc1ccccc1)NC(=O)[C@H](CC(=O)O)NC(=O)[C@@H](NC(=O)[C@H](C)NC(=O)[C@H](CO)NC(=O)[C@@H](NC(=O)[C@H](CCC(N)=O)NC(=O)[C@H](CCCNC(=N)N)NC(=O)[C@H](CCCNC(=N)N)NC(=O)[C@@H](N)CCCCN)[C@@H](C)O)[C@@H](C)O)C(=O)N[C@@H](Cc1ccccc1)C(=O)N[C@@H](CO)C(=O)O [peptide derived from p21WAF]
- HCT116 IC50 (HCT-116; 72 h): >1000 µg/mL
- A549 IC50 (A549; 72 h): >1000 µg/mL
- NCI-H460 IC50 (NCI-H460; 72 h): >1000 µg/mL

Compound: rhTRAIL 95-281
- COLO 205 mean (IC50) (Colo 205; Table 4, mean/SD part): 0.0249 µg/mL
- MES-SA/Dx5 mean (IC50) (MES-SA/Dx5): 0.02915 µg/mL
- HCT116 mean (IC50) (HCT-116; Table 4, mean/SD part): 7.558 µg/mL
- PLC/PRF/5 IC50 (PLC/PRF/5): >2 µg/mL
- OVCAR-3 mean (IC50) (NIH: OVCAR-3; Table 4, mean/SD part): 0.963 µg/mL
- Panc03.27 IC50 (Panc03.27): 0.315 µg/mL
- HT 144 mean (IC50) (HT144; Table 4, mean/SD part): 1.7335 µg/mL
- SK-MES-1 mean (IC50) (SK-MES-1): 0.0336 µg/mL
- SK Hep-1 IC50 (SK-Hep-1): >2 µg/mL
- SW780 mean (IC50) (SW780; Table 4, mean/SD part): 0.12 µg/mL
- HT1080 IC50 (HT1080): >2 µg/mL
- A498 IC50 (A498): 1.611 µg/mL
- Panc-1 IC50 (Panc-1): >2 µg/mL
- LNCaP mean (IC50) (LNCaP): 2.0515 µg/mL
- NCI-H460 mean (IC50) (NCI-H460; Table 4, mean/SD part): 5.8885 µg/mL and 5.888 µg/mL
- NCI-H460 IC50 (NCI-H460; [1]): 0.4382 µg/mL
- JURKAT A3 IC50 (Jurkat A3): >2 µg/mL
- UM-UC-3 mean (IC50) (UM-UC-3; Table 4, mean/SD part): 2.242 µg/mL and 2.241 µg/mL
- BxPC3 mean (IC50) (BxPC-3; Table 4, mean/SD part): 0.06471 µg/mL
